One molecule from patent US20220304348A1, “TRITERPENE GLUCURONIDES AND THEIR USE AS FLAVOR MODIFIERS” (Firmenich SA, priority 2019, published 2022) can be followed below.

This assay can be described thus: Sweetness enhancement taste panel (sweetness and licorice taste ratings of 5% sucrose solutions). Format: in vivo, human. The note with it: taste panel rating on a scale from 0 to 10; compound at 50 ppm in 5% sucrose solution in Henniez water; no flavor modifier = 5.0. The method, then: A test compounds were tested for its sweetness enhancement of a 5% (w/w) aqueous solution of sucrose. Taste panelists were asked to taste the following 5% sucrose solutions in Henniez water and rate their sweetness on a scale from 0 to 10, and to rate the presence of any licorice taste in the sample on a scale from 0 to 10.

For the molecule `CC1(C)[C@@H](O[C@@H]2O[C@H](C(=O)O)[C@@H](O)[C@H](O)[C@H]2O)CC[C@]2(C)[C@H]3C(=O)C=C4[C@@H]5C[C@@](C)(C(=O)O)CC[C@]5(C)CC[C@@]4(C)[C@]3(C)CC[C@@H]12` [Compound 108, β-Glycyrrhizin Monoglucuronate], the “Sweetness (0-10)” value amounted to 5.8.
